Where two headings read alike, the source gives them in different places.
Assays:
[1] = type: physicochemical; conditions: for stability of the HFE to temperature (conclusion from ketone concentration): heated at 150° C. for 8 days
Protocol: Stability testing was carried out by heating of the various samples in clean, PYREX glass round bottom flasks at the temperatures noted below.
The stability of H(CF2CF2)3CH2OCF2CFHCF3 was tested by placing a portion of the ether, prepared essentially as described in Example 1 and treated with both HF and potassium permanganate, (˜100 g) into a new PYREX glass flask containing a reflux condenser under nitrogen and heating to 150° C. for 36 days. Samples of the liquid were taken at 7, 14, 26 and 36 day time intervals and the composition was monitored by GC/MS for breakdown products of the parent molecule. […] The compositional analysis (GC/MS and GC-FID) verified this conclusion. After this heating period, the sample was then heated to 180° C. for an additional 14 days.
The stability of H(CF2CF2)3CH2OCF2CFHOCF3 was tested by placing a portion of the ether, prepared as described above, (75 g) into a flask containing a reflux condenser under nitrogen and heating while stirring magnetically to 175° C. for 15 days. Samples of the liquid were taken at 1, 2, 3, 4, 7, 8, 9, 11 and 15 day time intervals and analyzed by gas chromatography. In addition, the starting material and the material at the end of the heating period were analyzed by GC/MS for breakdown products of the parent molecule.
Stability testing in glass was carried out by placing about 100 g of the ether in a 500 ml, round bottom flask equipped with a water condenser and heated with magnetic stirring to 150° C. for seven days. Samples of the liquid were taken on days 1, 2, 3, 4, and 7 and analyzed by gas chromatography, HF gas probe, and pH paper. After one day, the pH had dropped from the initial value neutral value of 7 to 5 and remained at that level the remainder of the test.
(§1) 50 grams of the hydrofluoroether was charged to a 50 mL round bottom flask. The material was heated at 150° C. for 8 days with samples taken at day 1, 2, 3, 6, and 8. The primary breakdown product from the parent molecule that was monitored was the ketone intermediate, C3F7OCF(CF3)CF2OCF(CF3)C(O)CF2CF3. This was monitored using GC-FID.
as §1, with “5, 7,” for “3, 6,”
50 g of the hydrofluoroether was charged to a 50 mL round bottom flask. The material was heated at 150° C. for 7 days with samples taken at days 3, 5, and 7 days. The primary breakdown products from the parent molecule that were monitored was vinyl ether, C4F9OCF(CF3)CF2OCF═CF2 and the hydride C4F9OCF(CF3)CF2OCFHCF3. These were monitored using GC-FID.
50 g of the hydrofluoroether was charged to a 50 mL round bottom flask. […] The primary breakdown products from the parent molecule that were monitored was vinyl ether, C3F7(OCF(CF3)CF2)2OCF═CF2 and the hydride C3F7(OCF(CF3)CF2)2OCF═HCF3. These were monitored using GC-FID.

[2] = type: physicochemical; conditions: for breakdown product diketone (CF3)2CFCOC2F4COCF(CF3)2: other studies; for appearance of the metal parts of the chiller: over the lifetime of the test; for changes in the composition of the circulating fluid (NMR, GC/MS): circulated through closed stainless steel loop at 150° C. for 28 days
Protocol: The long term stability of HC6F12CH2OCF2CFHCF3 in a commercial chiller unit was tested. The chiller used for this test was a Lydall Affinity Chiller, model PWL-003 KBE48CBC3 with an operating range of 10° C. to 200° C. HC6F12CH2OCF2CFHCF3 was circulated through a closed stainless steel loop at 150° C. for 28 days. During this time the chiller operated continuously except for short periods for taking samples in which the fluid was cooled to room temperature before the sample was removed. […] The composition of the circulating fluid was analyzed by GC/MS periodically (on days 1, 3, 6, 13, 20, and 28) to determine whether any changes in the fluid had occurred. Fluorine NMR analysis of the fluid before the testing and after completion of the testing was also carried out. […] A very small level of HF (1.4 ppm) was observed initially and this value decreased to 0 ppm by day 13. HF was also monitored in the liquid phase by titration and never exceeded a value of 0.52 ppm.
A comparative hydrofluoroether 2,3,3,4,4-pentafluoro-2,5-bis(perfluoropropan-2-yl)-5-ethoxytetrahydrofuran (II) was also tested multiple times in this same system under the same conditions. The composition of this fluid was monitored periodically over about thirty days for composition changes from the input material. […] HF was also monitored in the liquid phase by titration and ranged between 0.34 and 0.36 ppm. […] Depending on the study this corrosion varied between quite marked with the formation of black or greenish deposits to less obvious but still showing significant signs of a corrosive agent derived from the fluid. This corrosion as well as the formation of the diketone breakdown product rendered this material unacceptable for use in such a high temperature heat transfer application.
Furthermore, the heat transfer fluid that includes the hydrofluoroether compound from Example 1 was tested for long term stability in a commercial chiller unit as described in Example 3. […] As a comparison, the compound from Comparative Example 1 was put through the same test.

Q: With `CCOC1(C(F)(C(F)(F)F)C(F)(F)F)OC(F)(C(F)(C(F)(F)F)C(F)(F)F)C(F)(F)C1(F)F` (centres unmarked) [Comparative Example 1, 2,3,3,4,4-pentafluoro-2,5-bis(perfluoropropan-2-yl)-5-ethoxytetrahydrofuran] as the molecule, how does the “ppm F (HF levels in the liquid phase)” value ([1]; 150° C., Day 0) read?
A: <0.1 ppm

Q: And the “ppm F (HF levels in the liquid phase)” value ([1]; 150° C., Day 1)?
A: 1.0 ppm

Q: And the “ppm F (HF levels in the liquid phase)” value ([1]; 150° C., Day 2)?
A: 1.8 ppm

Q: And the “ppm F (HF levels in the liquid phase)” value ([1]; 150° C., Day 3)?
A: 2.6 ppm

Q: What about the “ppm F (HF levels in the liquid phase)” value ([1]; 150° C., Day 4) of the same molecule?
A: 3.2 ppm

Q: What about the “ppm F (HF levels in the liquid phase)” value ([1]; 150° C., Day 7) of the same molecule?
A: 3.9 ppm

Q: What about the “pH (pH paper)” value ([1]; 150° C., after one day, remained at that level the remainder of the test) of the same molecule?
A: 5

Q: And the “HF level in the headspace (PortaSens probe)” value ([1]; 150° C., day 3, maximum level which the probe could detect, did not change for remainder of test)?
A: 27 ppm

Q: What about the “decomposition product diketone (CF3)2CFCOC2F4COCF(CF3)2 level” value ([1]; 150° C., day 7) of the same molecule?
A: 1648 ppm

Q: And the “pH (pH paper)” value ([1]; initial value, before heating)?
A: 7

Q: And the “stability of the parent molecule (conclusion from diketone formation)” value [2]?
A: not stable

Q: And the “breakdown product diketone (CF3)2CFCOC2F4COCF(CF3)2” value ([2]; 150° C., at 7 days)?
A: 472 ppm

Q: What about the “breakdown product diketone (CF3)2CFCOC2F4COCF(CF3)2” value ([2]; 150° C., at 28 days) of the same molecule?
A: 195 ppm

Q: And the “appearance of the metal parts of the chiller” value (“appearance” below) ([2]; 150° C.)?
A: considerable corrosion

Q: What about the “appearance” value ([2]; 150° C., listed as II) of the same molecule?
A: noticeable corrosion

Q: What does the source list for `CCOC(F)(C(F)(F)C(F)(F)F)C(F)(OC(F)(F)C(F)(OC(F)(F)C(F)(F)C(F)(F)F)C(F)(F)F)C(F)(F)F` (centres unmarked) [Comparative Example 2, 3-ethoxy-1,1,1,2,2,3,4,5,5,5-decafluoro-4-(1,1,2,3,3,3-hexafluoro-2-heptafluoropropyloxypropoxy)pentane]?
A: ppm Ketone (breakdown product C3F7OCF(CF3)CF2OCF(CF3)C(O)CF2CF3, GC-FID) ([1]; 150° C., Day 1): 140 ppm; ppm Ketone (breakdown product C3F7OCF(CF3)CF2OCF(CF3)C(O)CF2CF3, GC-FID) ([1]; 150° C., Day 2): 300 ppm; ppm Ketone (breakdown product C3F7OCF(CF3)CF2OCF(CF3)C(O)CF2CF3, GC-FID) ([1]; 150° C., Day 3): 503 ppm; ppm Ketone (breakdown product C3F7OCF(CF3)CF2OCF(CF3)C(O)CF2CF3, GC-FID) ([1]; 150° C., Day 6): 1000 ppm; ppm Ketone (breakdown product C3F7OCF(CF3)CF2OCF(CF3)C(O)CF2CF3, GC-FID) ([1]; 150° C., Day 8): 1200 ppm; stability of the HFE to temperature (conclusion from ketone concentration) [1]: not exceptionally stable

Q: Which “ppm Ketone (breakdown product C3F7OCF(CF3)CF2OCF(CF3)C(O)CF2CF3, GC-FID)” value (from here on “ppm Ketone”) ([1]; 150° C., Day 1) does the source give for `COC(F)(C(F)(F)C(F)(F)F)C(F)(OC(F)(F)C(F)(OC(F)(F)C(F)(F)C(F)(F)F)C(F)(F)F)C(F)(F)F` (centres unmarked) [Comparative Example 3, 3-methoxy-1,1,1,2,2,3,4,5,5,5-decafluoro-4-(1,1,2,3,3,3-hexafluoro-2-heptafluoropropyloxypropoxy)pentane] here?
A: 50 ppm

Q: What about the “ppm Ketone” value ([1]; 150° C., Day 2) of the same molecule?
A: 50 ppm

Q: What about the “ppm Ketone” value ([1]; 150° C., Day 5) of the same molecule?
A: 50 ppm

Q: What about the “ppm Ketone” value ([1]; 150° C., Day 7) of the same molecule?
A: 50 ppm

Q: And the “stability of the HFE to temperature (conclusion from ketone concentration)” value [1]?
A: not exceptionally stable

Q: Which “% Breakdown products (sum of vinyl ether and hydride, GC-FID)” value (“% Breakdown products” below) ([1]; 150° C., Day 0) does the source give for `CCOC(F)(F)C(F)(OC(F)(F)C(F)(OC(F)(F)C(F)(F)C(F)(F)C(F)(F)F)C(F)(F)F)C(F)(F)F` (centres unmarked) [Comparative Example 4, 1-(1-{[1-(ethoxydifluoromethyl)-1,2,2,2-tetrafluoroethoxy]-difluoromethyl}-1,2,2,2-tetrafluoroethoxy)-1,1,2,2,3,3,4,4,4-nonafluorobutane] here?
A: 0%

Q: What about the “% Breakdown products” value ([1]; 150° C., Day 3) of the same molecule?
A: 0.18%

Q: What about the “% Breakdown products” value ([1]; 150° C., Day 5) of the same molecule?
A: 0.32%

Q: And the “% Breakdown products” value ([1]; 150° C., Day 7)?
A: 0.49%

Q: With `CCOC(F)(F)C(F)(OC(F)(F)C(F)(OC(F)(F)C(F)(OC(F)(F)C(F)(F)C(F)(F)F)C(F)(F)F)C(F)(F)F)C(F)(F)F` (centres unmarked) [Comparative Example 5, 1-{1-[(1-{[1-(ethoxydifluoromethyl)-1,2,2,2-tetrafluoroethoxy]difluoro-methyl}-1,2,2,2-tetrafluoroethoxy)difluoromethyl]-1,2,2,2-tetrafluoroethoxy}-1,1,2,2,3,3,3-heptafluoro-propane] as the molecule, how does the “% Breakdown products” value ([1]; 150° C., Day 0) read?
A: 0%

Q: And the “% Breakdown products” value ([1]; 150° C., Day 2.75)?
A: 0.18%

Q: And the “% Breakdown products” value ([1]; 150° C., Day 4.75)?
A: 0.38%

Q: And the “% Breakdown products” value ([1]; 150° C., Day 6.75)?
A: 0.45%

Q: What about the “% Breakdown products” value ([1]; 150° C., Day 9.75) of the same molecule?
A: 0.55%

Q: What about the “% Breakdown products” value ([1]; 150° C., Day 18.75) of the same molecule?
A: 1.59%

Q: With `FC(C(F)(F)F)C(F)(F)OCC(F)(F)C(F)(F)C(F)(F)C(F)(F)C(F)(F)C(F)F` (centres unmarked) [Example 1, 7-(1,1,2,3,3,3-hexafluoropropoxy)-1,1,2,2,3,3,4,4,5,5,6,6-dodecafluoroheptane] as the molecule, how does the “changes in product purity / breakdown products of the parent molecule (GC/MS, GC-FID)” value ([1]; PYREX glass flask, reflux condenser, under nitrogen, 150° C. for 36 days) read?
A: No changes in product purity were observed

Q: What about the breakdown products ([1]; after 36 days at 150° C., heated to 180° C. for an additional 14 days) of the same molecule?
A: No breakdown products were observed

Q: And the “HF in head space of the flask (PortaSens HF gas detector probe)” value ([1]; entire 50 day heating period (150° C. 36 days, 180° C. 14 days))?
A: detected no HF

Q: What about the “HF level in head space of the chiller” value ([2]; 150° C., by day 13) of the same molecule?
A: 0 ppm

Q: What about the “increase in HF levels in head space of the chiller (PortaSens HF gas detector probe)” value ([2]; 150° C., entire 28 day heating period) of the same molecule?
A: detected no increase in the HF levels

Q: What about the “HF level in head space of the chiller” value ([2]; 150° C., observed initially) of the same molecule?
A: 1.4 ppm

Q: And the “HF in the liquid phase by titration” value ([2]; 150° C., over the chiller test (about 28-30 days))?
A: ≤ 0.52 ppm

Q: What about the “appearance” value ([2]; 150° C.) of the same molecule?
A: essentially unchanged

Q: And the “changes in the composition of the circulating fluid (NMR, GC/MS)” value [2]?
A: no significant deterioration

Q: What about the “changes in the composition of the circulating fluid (NMR, GC/MS)” value ([2]; listed as HC6F12CH2OCF2CFHCF3) of the same molecule?
A: No changes in the composition of the fluid were observed

Q: For `FC(OC(F)(F)F)C(F)(F)OCC(F)(F)C(F)(F)C(F)(F)C(F)(F)C(F)(F)C(F)F` (centres unmarked) [Example 2, 1,1,2,2,3,3,4,4,5,5,6,6-dodecafluoro-7-(1,1,2-trifluoro-2-trifluoromethoxyethoxy)heptane], which “changes in product purity (gas chromatography, GC/MS)” value ([1]; flask, reflux condenser, under nitrogen, 175° C. for 15 days) is on record?
A: No changes in product purity were observed
